From PubChem BioAssay (NCI)
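1) Cells in 96-well plates. 2) Compound, 48 h, 5 concentrations. 3) Linear interpolation between surrounding doses. 4) Unreached endpoint = highest concentration. TGI denotes the concentration required for complete inhibition of growth.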

Assays:
Assay in all cases: NCI anticancer screen, dose series, 48 h
SW-620 colon = system: SW-620 colon
MALME-3M melanoma = system: MALME-3M melanoma
SK-MEL-28 melanoma = system: SK-MEL-28 melanoma
HCT-116 colon = system: HCT-116 colon
MOLT-4 leukemia = system: MOLT-4 leukemia
NCI-H460 lung = system: NCI-H460 lung
HL-60(TB) leukemia = system: HL-60(TB) leukemia
786-0 renal = system: 786-0 renal
BT-549 breast = system: BT-549 breast
OVCAR-3 ovarian = system: OVCAR-3 ovarian
EKVX NSCLC = system: EKVX NSCLC
ACHN renal = system: ACHN renal
DU-145 prostate = system: DU-145 prostate
KM12 colon = system: KM12 colon
HCC-2998 colon = system: HCC-2998 colon
UO-31 renal = system: UO-31 renal
NCI-H23 lung = system: NCI-H23 lung
HOP-62 NSCLC = system: HOP-62 NSCLC
RXF 393 renal = system: RXF 393 renal
TK-10 renal = system: TK-10 renal
RPMI-8226 leukemia = system: RPMI-8226 leukemia
COLO 205 colon = system: COLO 205 colon
PC-3 prostate = system: PC-3 prostate
NCI/ADR-RES ovarian = system: NCI/ADR-RES ovarian
SF-268 CNS = system: SF-268 CNS
OVCAR-4 ovarian = system: OVCAR-4 ovarian
HS 578T breast = system: HS 578T breast
SF-539 CNS = system: SF-539 CNS
NCI-H226 lung = system: NCI-H226 lung
CAKI-1 renal = system: CAKI-1 renal
SNB-75 CNS = system: SNB-75 CNS
SR leukemia = system: SR leukemia
SF-295 CNS = system: SF-295 CNS
U251 CNS = system: U251 CNS
MDA-N = system: MDA-N
OVCAR-8 ovarian = system: OVCAR-8 ovarian
M14 melanoma = system: M14 melanoma
SK-MEL-5 melanoma = system: SK-MEL-5 melanoma
HOP-92 NSCLC = system: HOP-92 NSCLC
UACC-62 melanoma = system: UACC-62 melanoma
K-562 leukemia = system: K-562 leukemia
OVCAR-5 ovarian = system: OVCAR-5 ovarian
IGROV1 ovarian = system: IGROV1 ovarian
HT29 colon = system: HT29 colon
A498 renal = system: A498 renal
LOX IMVI melanoma = system: LOX IMVI melanoma
SNB-19 CNS = system: SNB-19 CNS
MDA-MB-231 breast = system: MDA-MB-231 breast
NCI-H522 lung = system: NCI-H522 lung
HCT-15 colon = system: HCT-15 colon
SK-MEL-2 melanoma = system: SK-MEL-2 melanoma
CCRF-CEM leukemia = system: CCRF-CEM leukemia
A549 NSCLC = system: A549 NSCLC
MCF7 breast = system: MCF7 breast
UACC-257 melanoma = system: UACC-257 melanoma
SN12C renal = system: SN12C renal
MDA-MB-435 = system: MDA-MB-435
T-47D breast = system: T-47D breast
SK-OV-3 ovarian = system: SK-OV-3 ovarian

`CN(C)CCNC(=O)c1cccc2[nH]c(-c3ccncc3)nc12` showed a TGI (SW-620 colon) of 13 µM, a TGI (MALME-3M melanoma) of 3.75 µM and a TGI (SK-MEL-28 melanoma) of 3.93 µM. For the same molecule, the TGI (HCT-116 colon) was 9.82 µM, the TGI (MOLT-4 leukemia) was over 100 µM and the TGI (NCI-H460 lung) was 8.22 µM. The TGI (HL-60(TB) leukemia) was 4.06 µM, the TGI (786-0 renal) was 4.15 µM and the TGI (BT-549 breast) was 34.8 µM. It also gave a TGI (OVCAR-3 ovarian) of over 46.9 µM, a TGI (EKVX NSCLC) of 73.7 µM and a TGI (ACHN renal) of 28.4 µM. The TGI (DU-145 prostate) was over 100 µM, the TGI (KM12 colon) was over 35.7 µM and the TGI (HCC-2998 colon) was 4.34 µM. For the same molecule, the TGI (UO-31 renal) was 6.76 µM, the TGI (NCI-H23 lung) was 32.1 µM and the TGI (HOP-62 NSCLC) was 52.8 µM. It also gave a TGI (RXF 393 renal) of 14.5 µM, a TGI (TK-10 renal) of 16.9 µM and a TGI (RPMI-8226 leukemia) of 21.5 µM. It also gave a TGI (COLO 205 colon) of 3.26 µM, a TGI (PC-3 prostate) of over 24.3 µM and a TGI (NCI/ADR-RES ovarian) of over 100 µM. For the same molecule, the TGI (SF-268 CNS) was 47.4 µM, the TGI (OVCAR-4 ovarian) was over 100 µM and the TGI (HS 578T breast) was 29.6 µM. For the same molecule, the TGI (SF-539 CNS) was 6.82 µM, the TGI (NCI-H226 lung) was over 50.5 µM and the TGI (CAKI-1 renal) was 5.95 µM. For the same molecule, the TGI (SNB-75 CNS) was 26.5 µM, the TGI (SR leukemia) was over 100 µM and the TGI (SF-295 CNS) was 7.97 µM. The TGI (U251 CNS) was 9.82 µM, the TGI (MDA-N) was 3.27 µM and the TGI (OVCAR-8 ovarian) was over 40.2 µM. It also gave a TGI (M14 melanoma) of 3.39 µM, a TGI (SK-MEL-5 melanoma) of 7.27 µM and a TGI (HOP-92 NSCLC) of 20.7 µM. The TGI (UACC-62 melanoma) was 10.8 µM, the TGI (K-562 leukemia) was over 100 µM and the TGI (OVCAR-5 ovarian) was 34.1 µM. It also gave a TGI (IGROV1 ovarian) of over 56.4 µM, a TGI (HT29 colon) of 7.27 µM and a TGI (A498 renal) of 19.8 µM. For the same molecule, the TGI (LOX IMVI melanoma) was 1.81 µM, the TGI (SNB-19 CNS) was over 63.2 µM and the TGI (MDA-MB-231 breast) was 9.74 µM. It also gave a TGI (NCI-H522 lung) of 3.97 µM, a TGI (HCT-15 colon) of 10.4 µM and a TGI (SK-MEL-2 melanoma) of 11.5 µM. It also gave a TGI (CCRF-CEM leukemia) of 7.77 µM, a TGI (A549 NSCLC) of over 44.9 µM and a TGI (MCF7 breast) of over 30.8 µM. For the same molecule, the TGI (UACC-257 melanoma) was 3.51 µM, the TGI (SN12C renal) was over 76.3 µM and the TGI (MDA-MB-435) was 3.63 µM. The TGI (T-47D breast) was over 86.1 µM.
With `Cc1[nH]c(=O)nc2nc3ccc(Cl)cc3c(NC(C)(CO)CO)c12` the TGI (SW-620 colon) was over 100 µM, the TGI (MALME-3M melanoma) was over 100 µM and the TGI (SK-MEL-28 melanoma) was over 100 µM. The TGI (HCT-116 colon) was over 100 µM, the TGI (MOLT-4 leukemia) was over 100 µM and the TGI (NCI-H460 lung) was over 100 µM. The TGI (HL-60(TB) leukemia) was over 100 µM, the TGI (786-0 renal) was over 100 µM and the TGI (SK-OV-3 ovarian) was over 100 µM. It also gave a TGI (BT-549 breast) of over 100 µM, a TGI (OVCAR-3 ovarian) of over 100 µM and a TGI (EKVX NSCLC) of over 100 µM. It also gave a TGI (ACHN renal) of over 100 µM, a TGI (DU-145 prostate) of over 100 µM and a TGI (KM12 colon) of over 100 µM. The TGI (HCC-2998 colon) was over 100 µM, the TGI (UO-31 renal) was 10.4 µM and the TGI (NCI-H23 lung) was over 100 µM. The TGI (HOP-62 NSCLC) was 61.3 µM, the TGI (RXF 393 renal) was 88.8 µM and the TGI (TK-10 renal) was over 100 µM. It also gave a TGI (RPMI-8226 leukemia) of over 100 µM, a TGI (COLO 205 colon) of over 100 µM and a TGI (PC-3 prostate) of over 100 µM. For the same molecule, the TGI (NCI/ADR-RES ovarian) was over 100 µM, the TGI (SF-268 CNS) was over 100 µM and the TGI (OVCAR-4 ovarian) was over 100 µM. For the same molecule, the TGI (HS 578T breast) was over 100 µM, the TGI (SF-539 CNS) was over 100 µM and the TGI (NCI-H226 lung) was over 100 µM. The TGI (CAKI-1 renal) was over 100 µM, the TGI (SNB-75 CNS) was over 96.5 µM and the TGI (SR leukemia) was over 100 µM. For the same molecule, the TGI (SF-295 CNS) was over 100 µM, the TGI (U251 CNS) was over 100 µM and the TGI (MDA-N) was over 100 µM. The TGI (OVCAR-8 ovarian) was over 100 µM, the TGI (M14 melanoma) was over 100 µM and the TGI (SK-MEL-5 melanoma) was over 100 µM. The TGI (HOP-92 NSCLC) was over 100 µM, the TGI (UACC-62 melanoma) was over 100 µM and the TGI (K-562 leukemia) was over 100 µM. It also gave a TGI (OVCAR-5 ovarian) of over 100 µM, a TGI (IGROV1 ovarian) of over 100 µM and a TGI (HT29 colon) of over 100 µM. The TGI (A498 renal) was over 100 µM, the TGI (LOX IMVI melanoma) was over 100 µM and the TGI (SNB-19 CNS) was over 95.3 µM. It also gave a TGI (MDA-MB-231 breast) of over 81 µM, a TGI (NCI-H522 lung) of over 67.9 µM and a TGI (HCT-15 colon) of over 100 µM. For the same molecule, the TGI (SK-MEL-2 melanoma) was over 100 µM, the TGI (CCRF-CEM leukemia) was over 100 µM and the TGI (A549 NSCLC) was over 100 µM. The TGI (MCF7 breast) was over 100 µM, the TGI (UACC-257 melanoma) was over 100 µM and the TGI (SN12C renal) was over 100 µM. The TGI (MDA-MB-435) was over 100 µM and the TGI (T-47D breast) was over 100 µM.
Molecule `O=C(CCc1ccc(O)c(O)c1)NCCc1ccc(O)c(O)c1` has a TGI (SW-620 colon) of over 100 µM, a TGI (MALME-3M melanoma) of over 100 µM and a TGI (SK-MEL-28 melanoma) of over 100 µM. It also gave a TGI (HCT-116 colon) of over 100 µM, a TGI (MOLT-4 leukemia) of over 100 µM and a TGI (NCI-H460 lung) of over 100 µM. It also gave a TGI (HL-60(TB) leukemia) of over 100 µM, a TGI (786-0 renal) of 33.8 µM and a TGI (SK-OV-3 ovarian) of over 100 µM. It also gave a TGI (BT-549 breast) of over 100 µM, a TGI (OVCAR-3 ovarian) of over 100 µM and a TGI (EKVX NSCLC) of over 100 µM. The TGI (ACHN renal) was over 100 µM, the TGI (DU-145 prostate) was over 100 µM and the TGI (KM12 colon) was over 100 µM. It also gave a TGI (HCC-2998 colon) of over 100 µM, a TGI (UO-31 renal) of over 100 µM and a TGI (NCI-H23 lung) of over 100 µM. The TGI (HOP-62 NSCLC) was over 100 µM, the TGI (RXF 393 renal) was over 100 µM and the TGI (TK-10 renal) was over 100 µM. It also gave a TGI (RPMI-8226 leukemia) of over 100 µM, a TGI (COLO 205 colon) of over 100 µM and a TGI (PC-3 prostate) of over 100 µM. For the same molecule, the TGI (NCI/ADR-RES ovarian) was over 100 µM, the TGI (SF-268 CNS) was over 100 µM and the TGI (OVCAR-4 ovarian) was 33.7 µM. It also gave a TGI (HS 578T breast) of over 100 µM, a TGI (SF-539 CNS) of over 100 µM and a TGI (NCI-H226 lung) of over 100 µM. For the same molecule, the TGI (SNB-75 CNS) was over 100 µM, the TGI (SR leukemia) was 74.1 µM and the TGI (SF-295 CNS) was over 100 µM. The TGI (U251 CNS) was 31 µM, the TGI (MDA-N) was 33.9 µM and the TGI (OVCAR-8 ovarian) was 32.4 µM. The TGI (M14 melanoma) was over 100 µM, the TGI (SK-MEL-5 melanoma) was over 100 µM and the TGI (HOP-92 NSCLC) was over 100 µM. It also gave a TGI (UACC-62 melanoma) of over 100 µM, a TGI (K-562 leukemia) of over 100 µM and a TGI (OVCAR-5 ovarian) of over 100 µM. It also gave a TGI (IGROV1 ovarian) of over 100 µM, a TGI (HT29 colon) of over 100 µM and a TGI (A498 renal) of over 100 µM. It also gave a TGI (LOX IMVI melanoma) of over 100 µM, a TGI (SNB-19 CNS) of over 100 µM and a TGI (MDA-MB-231 breast) of 73.9 µM. The TGI (NCI-H522 lung) was over 100 µM, the TGI (HCT-15 colon) was over 100 µM and the TGI (SK-MEL-2 melanoma) was over 100 µM. For the same molecule, the TGI (CCRF-CEM leukemia) was 78.3 µM, the TGI (A549 NSCLC) was over 100 µM and the TGI (MCF7 breast) was 45.4 µM. For the same molecule, the TGI (UACC-257 melanoma) was over 100 µM, the TGI (SN12C renal) was over 100 µM and the TGI (MDA-MB-435) was 31.8 µM. For the same molecule, the TGI (T-47D breast) was over 100 µM.
